One assay concerns Tor-His3 reporter. The experiment in a line: Western assay of reporter degradation in liquid culture after cycloheximide (in vivo). It is filed as cell-based, S. cerevisiae. To be noted: PS-341 200 μM; Δpdr5 strains Pre10-FPR1 and Rpn10-FPR1. How it is done: The aforementioned growth assay was a convenient tool for isolating strains to further explore DTL. […] To address this point, degradation of the reporters was directly measured. Strains Pre10-FPR1 and Rpn10-FPR1 were singly transformed with plasmids that expressed hemagglutinin (HA) epitope-tagged versions of Tor-His3 and TorS1972R-His3. The transformants were grown in liquid culture to early log phase, whereupon cycloheximide was added to halt protein translation. Each culture was then split in two and rapamycin was added to one. Samples were collected at various times and whole-cell protein extracts were generated and used for Western analysis (FIGS. 4A-4H). […] These experiments confirm that the growth deficient phenotype seen on histidine-dropout media was due to the degradation of the Tor-His3 reporter and that the 26S proteasome is necessary for this to occur.
In both assays, rapamycin was added to a final concentration of 1 μM, cycloheximide was added to a final concentration of 30 ng/ml and PS-341 was added to a final concentration of 200 μM. For liquid cultures, samples were extracted at fixed time intervals (0, 30, 60, 90 minutes) and whole cell extracts were made. 25 μg of total protein was used from each sample, resolved by SDS-PAGE and transferred to PVDF membranes. […]

Assay [1] has as its system T1, Tor-His3 with purified 26S proteasomes from strain Rpn10-FPR1.
T1 construct: made in house; host or cells: reporter: E. coli DH5αPRO (PROTet.133 vector)
The experiment in a line: In vitro degradation assay with purified 26S proteasomes and purified reporter. To be noted: PS-341 100 μM, rapamycin 1 μM. Type of assay: biochemical, S. cerevisiae. An excerpt: Whole, functional 26S proteasomes have been previously affinity-purified for use in biochemical assays (Leggett et al. (2002) Mol. Cell 10:495). The same procedure was used to isolate proteasomes from strain Rpn10-FPR1. HA epitope-tagged versions of Tor-His3 and TorS1972R-His3 were purified from a bacterial expression system and then mixed with the proteasomes, with or without rapamycin. Samples were extracted at regular intervals and reporter degradation was monitored by Western analysis (FIG. 5A). […] Once again, proteolysis of Tor-His3 could be halted upon the addition of the proteasome inhibitor PS-341.
26S proteasomes were affinity purified from strains Pre10-FPR1 and Rpn10 FPR1 using the Rpn11-TEV-ProA tag described previously (Leggett et al. (2002) Mol. Cell 10:495). Cells were grown in YPD, harvested, resuspended in 50 mM Tris-HCl [pH 8], 1 mM EDTA and lysed by French press. Lysates was centrifuged at 15,000×g for 25 minutes, filtered and incubated with IgG resin (ICN) for 1 hr at 4° C. Resin was collected in a column, washed with 100 bed volumes of 50 mM Tris-HCl [pH 8], 50 mM NaCl, 1 mM EDTA buffer and equilibrated with TEV-protease buffer (50 mM Tris-HCl [pH 7.5], 1 mM EDTA, 1 mM DTT). […] The integrity of the 26S complexes and presence of Pre10-FPR1 and Rpn10-FPR1 tagged subunits was analyzed by Coomassie staining, SDS-PAGE and immunodetection. […]

Entries after “also recorded” stand apart in the source; their conditions may differ.

The text below walks through data of US7371539B2 (priority 2003, dated 2008).

On to `CC(C)C[C@H](NC(=O)[C@H](Cc1ccccc1)NC(=O)c1cnccn1)B(O)O` [PS-341], for which the “effect on degradation of Tor-His3 in the presence of rapamycin” value in the assay with Tor-His3 reporter is reported as “prevented Tor-His3 from degrading; also recorded: halted degradation of Tor-His3”. Further, in assay [1], the “effect on proteolysis of Tor-His3 in vitro” value was “halted”.
